# How the values were obtained:
# Format in all cases: in vivo
# [1] = system: canarygrass (Phalaris minor); assay: Test C postemergence: canarygrass
# Description: (§1) At the same time, plants selected from these crop and weed species and also barley (winter barley, Hordeum vulgare), canarygrass (Phalaris minor), chickweed (common chickweed, Stellaria media) windgrass (Apera spica-venti) and deadnettle (henbit deadnettle, Lamium amplexicaule) were planted in pots containing Redi-Earth® planting medium (Scotts Company, 14111 Scottslawn Road, Marysville, Ohio 43041) comprising spaghnum peat moss, vermiculite, wetting agent and starter nutrients and treated with postemergence applications of test chemicals formulated in the same manner. Plants ranged in height from 2 to 18 cm (1- to 4-leaf stage) for postemergence treatments.
# (§2) Treated plants and controls were maintained in a greenhouse for 13 to 15 days, after which time all species were compared to controls and visually evaluated. Plant response ratings, summarized in Table C, are based on a scale of 0 to 100 where 0 is no effect and 100 is complete control. A dash (-) response means no test result.
# [2] = system: deadnettle (henbit deadnettle, Lamium amplexicaule); assay: Test C postemergence: deadnettle
# Description: as §1, §2
# [3] = system: bluegrass (annual bluegrass, Poa annua); assay: Test D pre-/postemergence: bluegrass
# Outline: (§3)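 Visual control ratings (0–100) after 14–21 days, controlled environment. Preemergence on silt loam; postemergence on 2–18 cm plants.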
# [4] = system: canarygrass (Phalaris minor); assay: Test D pre-/postemergence: canarygrass
# Outline: as §3
# [5] = system: chickweed (common chickweed, Stellaria media); assay: Test D pre-/postemergence: chickweed; details: Postemergence; for Plant response rating, Chickweed: scale 0 to 100
# Description: (§4) Seeds of plant species selected from bluegrass (annual bluegrass, Poa annua), blackgrass (Alopecurus myosuroides), canarygrass (Phalaris minor), chickweed (common chickweed, Stellaria media), galium (catchweed bedstraw, Galium aparine), bromegrass, downy (downy bromegrass, Bromus tectorum), field poppy (Papaver rhoeas), field violet (Viola arvensis), foxtail, green (green foxtail, Setaria viridis), deadnettle (henbit deadnettle, Lamium amplexicaule), ryegrass, Italian (Italian ryegrass, Lolium multiflorum), kochia (Kochia scoparia), lambsquarters (Chenopodium album), oilseed rape (Brassica napus), pigweed (Amaranthus retroflexus), Russian thistle (Salsola iberica), chamomile (scentless chamomile, Matricaria inodora), speedwell (bird's-eye speedwell, Veronica persica), barley, spring (spring barley, Hordeum vulgare), wheat, spring (spring wheat, Triticum aestivum), buckwheat, wild (wild buckwheat, Polygonum convolvulus), mustard, wild (wild mustard, Sinapis arvensis), oat, wild (wild oat, Avena fatua), radish, wild (wild radish, Raphanus raphanistrum), windgrass (Apera spica-venti), barley, winter (winter barley, Hordeum vulgare), and wheat, winter (winter wheat, Triticum aestivum) were planted into a silt loam soil and treated preemergence with test chemicals formulated in a non-phytotoxic solvent mixture which included a surfactant. At the same time, these same crop and weed species were planted in pots containing the planting medium comprising spaghnum peat moss, vermiculite, wetting agent and starter nutrients and treated with postemergence applications of the test chemicals formulated in the same manner. Plants ranged in height from 2 to 18 cm (1- to 4-leaf stage).
# as §2, with “controlled growth environment” for “greenhouse”, “14” for “13”, “21 days” for “15 days,”, “D,” for “C,”
# [6] = system: foxtail, green (green foxtail, Setaria viridis); assay: Test D pre-/postemergence: foxtail, green
# Description: as §4
# as §2, with “controlled growth environment” for “greenhouse”, “14” for “13”, “21 days” for “15 days,”, “D,” for “C,”
# [7] = system: ryegrass, Italian (Italian ryegrass, Lolium multiflorum); assay: Test D pre-/postemergence: ryegrass, Italian
# Description: as §4
# as §2, with “controlled growth environment” for “greenhouse”, “14” for “13”, “21 days” for “15 days,”, “D,” for “C,”
# [8] = system: pigweed (Amaranthus retroflexus); assay: Test D pre-/postemergence: pigweed
# Description: as §4
# as §2, with “controlled growth environment” for “greenhouse”, “14” for “13”, “21 days” for “15 days,”, “D,” for “C,”
# [9] = 31 g ai/ha, scale 0 to 100 (0 no effect, 100 complete control)
# [10] = 62 g ai/ha, scale 0 to 100 (0 no effect, 100 complete control)
# [11] = 125 g ai/ha, scale 0 to 100, 0 no effect, 100 complete control
# [12] = Postemergence, 31 g ai/ha, scale 0 to 100 (0 no effect, 100 complete control)
# [13] = Postemergence, 62 g ai/ha, scale 0 to 100 (0 no effect, 100 complete control)
# [14] = Postemergence, 125 g ai/ha, scale 0 to 100, 0 no effect, 100 complete control
# [15] = Postemergence, 8 g ai/ha, scale 0 to 100
# [16] = Postemergence, 16 g ai/ha, scale 0 to 100
# [17] = Postemergence, 250 g ai/ha, scale 0 to 100 (0 no effect, 100 complete control)
# [18] = Preemergence, 16 g ai/ha, scale 0 to 100 (0 no effect, 100 complete control)
# [19] = Preemergence, 31 g ai/ha, scale 0 to 100 (0 no effect, 100 complete control)
# [20] = Preemergence, 62 g ai/ha, scale 0 to 100
# [21] = Preemergence, 125 g ai/ha, scale 0 to 100
# [22] = Preemergence, 250 g ai/ha, scale 0 to 100
compound,measurement,setting,value
Cc1nn(-c2ccc(F)c(F)c2)nc1Oc1ccnc(C(F)(F)F)c1 [Compound 145],"Plant response rating, Canarygrass",[1]; [9],15
same,"Plant response rating, Canarygrass",[1]; [10],40
same,"Plant response rating, Canarygrass",[1]; [11],50
same,"Plant response rating, Canarygrass","[1]; 250 g ai/ha, scale 0 to 100",90
same,"Plant response rating, Deadnettle",[2]; [9],100
same,"Plant response rating, Deadnettle",[2]; [10],100
same,"Plant response rating, Deadnettle",[2]; [11],100
same,"Plant response rating, Deadnettle","[2]; 250 g ai/ha, scale 0 to 100",100
same,Plant response rating: Bluegrass,[3]; [12],20
same,Plant response rating: Bluegrass,[3]; [13],25
same,Plant response rating: Bluegrass,[3]; [14],40
same,"Plant response rating, Bluegrass",[3]; [15],0
same,"Plant response rating, Bluegrass",[3]; [16],0
same,Plant response rating: Canarygrass,[4]; [12],35
same,Plant response rating: Canarygrass,[4]; [13],35
same,Plant response rating: Canarygrass,[4]; [14],60
same,"Plant response rating, Canarygrass",[4]; [15],20
same,"Plant response rating, Canarygrass",[4]; [16],30
same,Plant response rating: Chickweed,[5]; [9],60
same,Plant response rating: Chickweed,[5]; [10],80
same,Plant response rating: Chickweed,[5]; [11],90
same,"Plant response rating, Chickweed",[5]; 8 g ai/ha,40
same,"Plant response rating, Chickweed",[5]; 16 g ai/ha,75
same,"Plant response rating: Foxtail, Green",[6]; [12],60
same,"Plant response rating: Foxtail, Green",[6]; [13],100
same,"Plant response rating: Foxtail, Green",[6]; [14],100
same,"Plant response rating, Foxtail, Green",[6]; [15],5
same,"Plant response rating, Foxtail, Green",[6]; [16],5
same,"Plant response rating: Ryegrass, Italian",[7]; [12],10
same,"Plant response rating: Ryegrass, Italian",[7]; [13],15
same,"Plant response rating: Ryegrass, Italian",[7]; [14],30
same,"Plant response rating, Ryegrass, Italian",[7]; [15],0
same,"Plant response rating, Ryegrass, Italian",[7]; [16],0
same,Plant response rating: Pigweed,[8]; [12],95
same,Plant response rating: Pigweed,[8]; [13],100
same,Plant response rating: Pigweed,[8]; [14],100
same,"Plant response rating, Pigweed",[8]; [15],20
same,"Plant response rating, Pigweed",[8]; [16],70
CCOc1nn(-c2ccc(F)cc2)nc1Cc1ccnc(C(F)F)c1 [Compound 195],"Plant response rating, Canarygrass",[1]; [9],40
same,"Plant response rating, Canarygrass",[1]; [10],60
same,"Plant response rating, Canarygrass",[1]; [11],85
same,"Plant response rating, Canarygrass","[1]; 250 g ai/ha, scale 0 to 100",100
same,"Plant response rating, Deadnettle",[2]; [9],100
same,"Plant response rating, Deadnettle",[2]; [10],100
same,"Plant response rating, Deadnettle",[2]; [11],100
same,"Plant response rating, Deadnettle","[2]; 250 g ai/ha, scale 0 to 100",100
same,Plant response rating: Bluegrass,[3]; [12],20
same,Plant response rating: Bluegrass,[3]; [13],40
same,Plant response rating: Bluegrass,[3]; [14],60
same,Plant response rating: Bluegrass,[3]; [17],80
same,"Plant response rating, Bluegrass",[3]; [16],10
same,"Plant response rating, Bluegrass",[3]; [18],0
same,"Plant response rating, Bluegrass",[3]; [19],10
same,"Plant response rating, Bluegrass",[3]; [20],20
same,"Plant response rating, Bluegrass",[3]; [21],50
same,"Plant response rating, Bluegrass",[3]; [22],80
same,Plant response rating: Canarygrass,[4]; [12],10
same,Plant response rating: Canarygrass,[4]; [13],20
same,Plant response rating: Canarygrass,[4]; [14],40
same,Plant response rating: Canarygrass,[4]; [17],55
same,"Plant response rating, Canarygrass",[4]; [16],10
same,"Plant response rating, Canarygrass",[4]; [18],0
same,"Plant response rating, Canarygrass",[4]; [19],25
same,"Plant response rating, Canarygrass",[4]; [20],40
same,"Plant response rating, Canarygrass",[4]; [21],80
same,"Plant response rating, Canarygrass",[4]; [22],95
same,Plant response rating: Chickweed,[5]; [9],40
same,Plant response rating: Chickweed,[5]; [10],60
same,Plant response rating: Chickweed,[5]; [11],85
same,Plant response rating: Chickweed,"[5]; 250 g ai/ha, scale 0 to 100 (0 no effect, 100 complete control)",90
same,"Plant response rating, Chickweed",[5]; 16 g ai/ha,30
same,"Plant response rating: Foxtail, Green",[6]; [12],50
same,"Plant response rating: Foxtail, Green",[6]; [13],75
same,"Plant response rating: Foxtail, Green",[6]; [14],100
same,"Plant response rating: Foxtail, Green",[6]; [17],100
same,"Plant response rating, Foxtail, Green",[6]; [16],30
same,"Plant response rating, Foxtail, Green",[6]; [18],15
same,"Plant response rating, Foxtail, Green",[6]; [19],90
same,"Plant response rating, Foxtail, Green",[6]; [20],100
same,"Plant response rating, Foxtail, Green",[6]; [21],100
same,"Plant response rating, Foxtail, Green",[6]; [22],100
same,"Plant response rating: Ryegrass, Italian",[7]; [12],10
same,"Plant response rating: Ryegrass, Italian",[7]; [13],20
same,"Plant response rating: Ryegrass, Italian",[7]; [14],20
same,"Plant response rating: Ryegrass, Italian",[7]; [17],25
same,"Plant response rating, Ryegrass, Italian",[7]; [16],5
same,"Plant response rating, Ryegrass, Italian",[7]; [18],0
same,"Plant response rating, Ryegrass, Italian",[7]; [19],0
same,"Plant response rating, Ryegrass, Italian",[7]; [20],0
same,"Plant response rating, Ryegrass, Italian",[7]; [21],20
same,"Plant response rating, Ryegrass, Italian",[7]; [22],60
same,Plant response rating: Pigweed,[8]; [12],65
same,Plant response rating: Pigweed,[8]; [13],75
same,Plant response rating: Pigweed,[8]; [14],80
same,Plant response rating: Pigweed,[8]; [17],95
same,"Plant response rating, Pigweed",[8]; [16],60
same,"Plant response rating, Pigweed",[8]; [18],60
same,"Plant response rating, Pigweed",[8]; [19],60
same,"Plant response rating, Pigweed",[8]; [20],60
same,"Plant response rating, Pigweed",[8]; [21],100
same,"Plant response rating, Pigweed",[8]; [22],95

# Reference: patent US9302999B2, “Substituted triazoles as herbicides” (E. I. DU PONT DE NEMOURS AND COMPANY, priority 2012, dated 2016)
